Assay [1] deals with MSSA ATCC25923. The assay can be described thus: MIC with addition of PG, LPS or D-Ala-D-Ala (Example 3). The format is cell-based, Staphylococcus aureus. The following applies: MSSA (ATCC25923). How it is done: (§1) Regarding EGCG-C16, whether or not the antibacterial action thereof against MSSA and MRSA is inhibited by the addition of: peptidoglycan (PG) or D-Ala-D-Ala, which are each a cell wall component; or lipopolysaccharide (LPS), which is an outer membrane component, was examined. The MIC measurement was carried out in the manner described in Section (2) of Example 2.
(§2) In Example 3, EGCG-C16 prepared in Example 1 was used as an antibacterial agent. In Comparative Example 3, unsubstituted EGCG was used as an antibacterial agent. […] Antibacterial agent solutions of EGCG-C16 and EGCG were prepared in the same manner as described in Section (2) of Example 1. Antibacterial agent solutions of the antibacterial agents other than EGCG-C16 and EGCG were prepared by dissolving them in PBS.
(§3) As additives, PG (Peptidoglycan Staphylococcus aureus, SIGMA-ALDRICH), D-Ala-D-Ala (SIGMA-ALDRICH), and LPS (Lipopolysaccharide Salmonella, SIGMA-ALDRICH) were provided. Each of the additives was dissolved in PBS, and the resultant solution was used as an additive solution.
(§4) Dilution series of the antibacterial agent solutions were prepared. Each of them was dispensed to a 96-well plate. Further, the additive solution was added thereto and mixed. After that, a bacterial culture solution of MRSA ATCC43300 or MSSA ATCC25923 was added thereto and cultured at 37° C. for 18 hours. In the mixture of the antibacterial agent solution, the additive solution, and the bacterial culture solution, the final concentrations of PG, D-Ala-D-Ala, and LPS were each set to 30 μg/ml. Unless otherwise stated, the minimum inhibitory concentration (MIC) was calculated in the same manner as described in Section (2) of Example 2.

A further assay relates to MRSA ATCC43300. Described as above. The class given is cell-based, Staphylococcus aureus. The note with it: MRSA (ATCC43300). How it is done: as §1, §2, §3, §4
For assay [2], the system named is MSSA ATCC25923. The assay can be described thus: Membrane damaging properties, SYTOX Green fluorescence (Example 4). The class given is cell-based, Staphylococcus aureus. The following applies: for fluorescence intensity ratio of SYTOX Green (control PBS = 1): 37° C., 15 minutes, EGCG derivative 4-32, EGCG 8-128, NISIN 1-8 μg/ml, FIG. 3. How it is done: As an antibacterial agent, the EGCG-C16 prepared in Example 1 was used in Example 4; EGCG was used in Comparative Example 4; and membrane-damaging peptide NISIN (MP Biomedicals) was used in a reference example. Antibacterial agent solutions of EGCG-C16 and EGCG were prepared by dissolving them in DMSO so as to achieve top concentrations, respectively. An antibacterial agent solution of the other antibacterial agent was prepared by dissolving it in PBS and diluted with PBS as appropriate. The influence of DMSO used for dissolving the antibacterial agents also was considered.
MSSA ATCC25923 and MRSA ATCC43300 were subjected to shaking culture in MH-broths (Difco) until they reached a late stage in the exponential growth phase. The thus-obtained culture solutions were each centrifuged at 7000 rpm for 10 minutes, and bacterial cells that had settled were suspended in PBS. The suspension of the bacterial cells was added to wells of a 384 black plate, and each of the antibacterial agent solutions was further added thereto and mixed. The resultant mixture was incubated at 37° C. for 15 minutes. Subsequently, a dead cell-staining dye (trade name “SYTOX Green”, LONZA) was mixed in each well so that the concentration thereof became 10 μmol/l, and the resultant mixture was incubated at 37° C. for 10 minutes. […] On the other hand, as a control, the fluorescence intensity was measured in the same manner, except that PBS or 10% DMSO was added instead of the antibacterial agent solutions. Then, regarding each of the MSSA and MRSA, the ratio of the fluorescence intensity when each of the agents was added was calculated assuming that the fluorescence intensity obtained in the control (PBS) was 1.

For a further assay, the system named is fungi. The assay can be described thus: Antifungal effect over the fungi of Table 8. The format is cell-based. The following applies: respective types of fungi of Table 8. How it is done:
Regarding the respective type strains shown in Tables 7 and 8 below, the MIC measurement was performed using the antibacterial agent solutions of Example 2 in the same manner as described in Section (2) of Example 1, except for the following. The antibacterial agent solutions were prepared by dissolving the EGCG derivatives of Example 2 in 100% DMSO and then diluting the resultant mixtures with sterile distilled water. The respective strains were derived from ATCC or NCTC. As Moraxella catarrhalis and Aspergillus fumigatus, clinical isolates thereof without an acquired resistance mechanism were used. For nutrient-rich bacteria, namely, Streptococcus pneumoniae ATCC49619, Streptococcus pyogenes ATCC19615, Streptococcus agalactiae ATCC13813, Moraxella catarrhalis, and Haemophilis influenzae ATCC49766, Strepto Haemo supplement (Eiken Chemical Co., Ltd.) was added to media for culturing them. The MIC measurement with respect to fungi was carried out by a broth microdilution method using a RPMI1640/MOPS (pH 7.0) medium in accordance with CLSI guidelines. About 2×10^3 cells/ml of fungi were inoculated to the medium. After the culture at 35° C. for 24 to 48 hours, the MIC was determined. Also, regarding the antibacterial agent solution of Comparative Example 2, the MIC was measured in the same manner.

Setting [3] is: +LPS (30 μg/mL), upper part of Table 9.
The mark [4] stands for this setting: +PG (30 μg/mL), upper part of Table 9 (PG/LPS series).
[5] abbreviates: MH-broth free of additives, upper part of Table 9 (PG/LPS series).
Setting [6] is: +D-Ala-D-Ala (30 μg/mL), lower part of Table 9.
Setting [7] is: +PG (30 μg/mL), lower part of Table 9 (PG/D-Ala-D-Ala series).
Where [8] appears, read: MH-broth free of additives, lower part of Table 9 (PG/D-Ala-D-Ala series).

These results are taken from patent US9801850B2, “Antibacterial agent” (OSAKA UNIVERSITY, priority 2009, dated 2017).

The term MIC denotes the lowest concentration that inhibits growth of the organism. Read a high MIC as a need for much substance. Consider `O=C(O[C@@H]1Cc2c(O)cc(O)cc2O[C@@H]1c1cc(O)c(O)c(O)c1)c1cc(O)c(O)c(O)c1` [EGCG, Epigallocatechin gallate, reference compound], for which the minimal inhibitory concentration (MIC) in the assay on MSSA ATCC25923 [1] (setting [3]), with MSSA ATCC25923 [1] (setting [4]), against MSSA ATCC25923 [1] (setting [5]), in the assay with MRSA ATCC43300 (setting [3]), against MRSA ATCC43300 (setting [4]) and against MRSA ATCC43300 (setting [5]) was greater than 64 µg/mL in each case. Also, the “fluorescence intensity ratio of SYTOX Green (control PBS = 1)” value with MSSA ATCC25923 [2] is listed as “smaller than 1”.
For the molecule EGCG-palmitate [EGCG-C16], the MIC in the assay on MSSA ATCC25923 [1] (setting [6]) was found to be 16 µg/mL; in the assay with MSSA ATCC25923 [1] (setting [3]), 16 µg/mL; with MSSA ATCC25923 [1] (setting [7]), 32 µg/mL; in the assay on MSSA ATCC25923 [1] (setting [4]), 32 µg/mL; against MSSA ATCC25923 [1] (setting [8]) it was 16 µg/mL; in the assay with MSSA ATCC25923 [1] (setting [5]), 16 µg/mL. For the same molecule, the MIC amounted to 8 µg/mL against MRSA ATCC43300 (setting [6]); 16 µg/mL in the assay with MRSA ATCC43300 (setting [3]); 16 µg/mL against MRSA ATCC43300 (setting [7]); 32 µg/mL against MRSA ATCC43300 (setting [4]); 8 µg/mL in the assay with MRSA ATCC43300 (setting [8]); 16 µg/mL against MRSA ATCC43300 (setting [5]). Moreover, the “fluorescence intensity ratio of SYTOX Green (control PBS = 1)” value with MSSA ATCC25923 [2] is given as “very high fluorescence intensity ratio”. The “cell membrane-damaging action at high concentration (SYTOX Green)” value in the assay on MSSA ATCC25923 [2] (EGCG-C16 at 64 μg/ml) was “tendency for this action of EGCG-C16 to become weak”.
As for EGCG-palmitoleate [EGCG-C16E], the antifungal effect result in the assay on fungi is “highest antifungal effect”.
EGCG-α-linoleate [EGCG-C18TE]: the antifungal effect entry with fungi is “highest antifungal effect”.
